From patent publication EP4741395A1, “NOVEL COMPOUND SENSITIVE TO NITROGEN MONOXIDE AND PHARMACEUTICAL COMPOSITION COMPRISING SAME” (Omniamed Co. Ltd, priority 2023, dated 2025)

Experiments:
Raw 264.7 cell line = assay: NO scavenging activity in LPS-treated immune cells (Griess reagent); format: cell-based; settings: 24 hours; for activity at 10 µM: Mus musculus, RAW264.7, Raw 264.7, LPS 500 ng/mL, read-out: NO Scavenging Activity (%) (Mean±SD)
Protocol: Raw 264.7 cell line was seeded in a 48-well plate at a density of 8×10^4 cells/well, and cultured at 37°C in a DMEM medium including 10% FBS, 100 U/mL of penicillin and 100 µg/mL of streptomycin.
The medium was cultured overnight, and then replaced with a fresh medium including 10 µM of the pharmaceutical composition sensitive to nitrogen monoxide including the compound of each of Examples 1 to 30 and 500 ng/mL of LPS, and the fresh medium was cultured again for another 24 hours.
Lastly, in order to measure the amount of NO produced, the amount of NO2^- present in the cell culture medium was measured using a Griess reagent (sulfanilamide, N-1-naphthylethylenediamine dihydrochloride). Specifically, 100 µL of a Griess reagent was mixed with a mixture solution of 50 µL of the cell culture medium and 50 µL of PBS. The mixture solution was reacted for 10 minutes in a well plate, and absorbance thereof at 540 nm was measured.

[1] = DAF-2 assay of NO scavenging activity (NO donor SNAP); format: biochemical; settings: DAF-2 10 µM, SNAP 100 µM, PBS, 3 hours, 37°C
Protocol: NO scavenging activity of the pharmaceutical composition sensitive to nitrogen monoxide including the compound according to each of Examples 1 to 22, 29 to 31, and 33 to 35 was evaluated through a DAF-2 assay.
Specifically, a reagent stock solution was made using DMSO (dimethyl sulfoxide) in order to prepare 5 mM of DAF-2, 100 mM of SNAP and 5 mM of the compound synthesized in each of the Examples, and for the reaction, the solution was added to a PBS (phosphate buffered saline) solution so that DAF-2, SNAP and the compound had final concentrations of 10 µM, 100 µM and the concentration of Table 1, respectively, followed by a reaction for 3 hours in a 37°C incubator.

[2] = DAF-2 assay of NO scavenging activity without and with H2O2 (ROS); format: biochemical; settings: SNAP 100 µM, DAF-2 10 µM, 3 hours, 37°C; for NO Scavenging Activity (%) (Mean±SD) With H2O2: H2O2 1 mM
Protocol: The pharmaceutical composition sensitive to nitrogen monoxide including the compound according to each of Examples 23 to 28 and 32 may have scavenging activity for reactive oxygen species (ROS). NO scavenging activity of the pharmaceutical composition was evaluated through a DAF-2 assay.
Specifically, to a 100 µM solution of SNAP, the compound synthesized in each of the Examples was added at a concentration of the following Table 2, and reacted. Then 10 µM of DAF-2 was added thereto, followed by a reaction for 3 hours in a 37°C incubator.
Additionally, a stock solution of H2O2 (10 M) was added to the reaction solution so that SNAP and H2O2 had final concentrations of 100 µM and 1 mM, respectively. Then, the compound synthesized in each of the Examples was added thereto at a concentration of the following Table 11, followed by a reaction in the same manner, and NO scavenging activity was calculated by Equation 1.

Compound: C[C@@H]1CCN(C(=O)CC#N)C[C@@H]1N(C)c1ncnc2c1ccn2C(=O)Nc1cc(O)ccc1N [Example 9, N-(2-amino-5-hydroxyphenyl)-4-(((3R,4R)-1-(2-cyanoacetyl)-4-methylpiperidin-3-yl)(methyl)amino)-7H-pyrrolo[2,3-d]pyrimidine-7-carboxamide]
- activity at 10 µM (Raw 264.7 cell line): 78.9 ± 0.21%

Compound: CC1CC2C3CCC4=CC(=O)C=CC4(C)C3(F)C(O)CC2(C)C1(O)C(=O)COC(=O)Nc1ccccc1N (centres unmarked) [Example 33, 2-(9-fluoro-11,17-dihydroxy-10,13,16-trimethyl-3-oxo-6,7,8,9,10,11,12,13,14,15,16,17-dodecahydro-3H-cyclopenta[a]phenanthren-17-yl)-2-oxoethyl (2-aminophenyl) carbamate]
- NO Scavenging Activity (%) (Mean±SD) ([1]; compound 1 µM): 2.22± 4.76%
- NO Scavenging Activity (%) (Mean±SD) ([1]; compound 5 µM): 1.72± 4.28%
- NO Scavenging Activity (%) (Mean±SD) ([1]; compound 10 µM): 1.52± 10.22%

Compound: Cc1ccc(NC(=O)OCC(=O)C2(O)C(C)CC3C4CCC5=CC(=O)C=CC5(C)C4(F)C(O)CC32C)c(N)c1 (centres unmarked) [Example 34, 2-(9-fluoro-11,17-dihydroxy-10,13,16-trimethyl-3-oxo-6,7,8,9,10,11,12,13,14,15,16,17-dodecahydro-3H-cyclopenta[a]phenanthren-17-yl)-2-oxoethyl (2-amino-4-methylphenyl) carbamate]
- NO Scavenging Activity (%) (Mean±SD) ([1]; compound 10 µM): 0.76± 5.81%

Compound: COc1ccc(N)c(NC(=O)n2ccc3c(N(C)[C@H]4CN(C(=O)CC#N)CC[C@H]4C)ncnc32)c1 [Example 7, N-(2-amino-5-methoxyphenyl)-4-(((3R,4R)-1-(2-cyanoacetyl)-4-methylpiperidin-3-yl)(methyl)amino)-7H-pyrrolo[2,3-d]pyrimidine-7-carboxamide]
- activity at 10 µM (Raw 264.7 cell line): 88.2 ± 0.06%

Compound: N-(2-(3-(2-amino-5-hydroxyphenyl)-1-methylureido)ethyl)-4-(((1S,2R)-5-(2-cyanoacetyl)-2-methylcyclohexyl) (methyl)amino)-N-methyl-7H-pyrrolo[2,3-d]pyrimidine-7-carboxamide [Example 20]
- NO Scavenging Activity (%) (Mean±SD) (Raw 264.7 cell line; 10 µM, Raw 264.7, LPS 500 ng/mL): 59.5±0.11%

Compound: CC[C@@H]1CN(C(=O)NCC(F)(F)F)C[C@@H]1c1cnc2cnc3c(ccn3C(=O)Nc3cc4c(cc3N)n(C)c(=O)n4C)n12 [Example 31, N-(6-amino-1,3-dimethyl-2-oxo-2,3-dihydro-1H-benzo[d]imidazol-5-yl)-8-((3R,4S)-4-ethyl-1-((2,2,2-trifluoroethyl)carbamoyl)pyrrolidin-3-yl)-3H-imidazo[1,2-a]pyrrolo[2,3-e]pyrazine-3-carboxamide]
- NO Scavenging Activity (%) (Mean±SD) ([1]; compound 1 µM): 79.61 ±3.60%
- NO Scavenging Activity (%) (Mean±SD) ([1]; compound 5 µM): 90.34 ±0.98%
- NO Scavenging Activity (%) (Mean±SD) ([1]; compound 10 µM): 92.21 ±0.98%

Compound: CC[C@@H]1CN(C(=O)NCC(F)(F)F)C[C@@H]1c1cnc2cnc3c(ccn3C(=O)Nc3cc4c(cc3NC(=O)OCc3ccc(B(O)O)cc3)n(C)c(=O)n4C)n12 [Example 32, (4-((((6-(8-((3R,4S)-4-ethyl-1-((2,2,2-trifluoroethyl)carbamoyl)pyrrolidin-3-yl)-3H-imidazo[1,2-a]pyrrolo[2,3-e]pyrazine-3-carboxamido)-1,3-dimethyl-2-oxo-2,3-dihydro-1H-benzo[d]imidazol-5-yl)carbamoyl)oxy)methyl)phenyl)boronic acid]
- NO Scavenging Activity (%) (Mean±SD) Without H2O2 ([2]; compound 1 µM): 6.42± 10.86%
- NO Scavenging Activity (%) (Mean±SD) With H2O2 ([2]; compound 1 µM): 4.05± 3.57%
- NO Scavenging Activity (%) (Mean±SD) Without H2O2 ([2]; compound 5 µM): 6.84± 5.21%
- NO Scavenging Activity (%) (Mean±SD) With H2O2 ([2]; compound 5 µM): 29.92 ±7.09%
- NO Scavenging Activity (%) (Mean±SD) Without H2O2 ([2]; compound 10 µM): 9.26± 5.51%
- NO Scavenging Activity (%) (Mean±SD) With H2O2 ([2]; compound 10 µM): 32.06 ±3.99%

Compound: C[C@@H]1CCN(C(=O)CC#N)C[C@@H]1N(C)c1ncnc2c1ccn2C(=O)N(C)CCN(C)C(=O)Nc1ccccc1N [Example 14, N-(2-(3-(2-aminophenyl)-1-methylureido)ethyl)-4-(((3R,4R)-1-(2-cyanoacetyl)-4-methylpiperidin-3-yl)(methyl)amino)-N-methyl-7H-pyrrolo[2,3-d]pyrimidine-7-carboxamide]
- activity at 10 µM (Raw 264.7 cell line): 46 ± 2.52%

Compound: COc1ccc(NC(=O)N(C)CCN(C)C(=O)n2ccc3c(N(C)[C@H]4CN(C(=O)CC#N)CC[C@H]4C)ncnc32)c(N)c1 [Example 17, N-(2-(3-(2-amino-4-methoxyphenyl)-1-methylureido)ethyl)-4-(((3R,4R)-1-(2-cyanoacetyl)-4-methylpiperidin-3-yl) (methyl)amino)-N-methyl-7H-pyrrolo[2,3-d]pyrimidine-7-carboxamide]
- activity at 10 µM (Raw 264.7 cell line): 29.6 ± 2.95%

Compound: cyanocobalamin [Vitamin B12, reference compound]
- NO Scavenging Activity (%) (Mean±SD) ([1]; compound 1 µM): 3.18± 1.03%
- NO Scavenging Activity (%) (Mean±SD) ([1]; compound 5 µM): 8.98± 2.46%
- NO Scavenging Activity (%) (Mean±SD) ([1]; compound 10 µM): 12.37 ±3.73%
- NO Scavenging Activity (%) (Mean±SD) ([1]; compound 100 µM): 41.09 ±1.57%
- NO Scavenging Activity (%) (Mean±SD) ([1]; compound 1,000 µM): 99.48 ±0.95%

Compound: COc1ccc(NC(=O)n2ccc3c(N(C)[C@H]4CN(C(=O)CC#N)CC[C@H]4C)ncnc32)c(N)c1 [Example 6, N-(2-amino-4-methoxyphenyl)-4-(((3R,4R)-1-(2-cyanoacetyl)-4-methylpiperidin-3-yl)(methyl)amino)-7H-pyrrolo[2,3-d]pyrimidine-7-carboxamide]
- activity at 10 µM (Raw 264.7 cell line): 68.5 ± 0.11%

Compound: C[C@@H]1CCN(C(=O)CC#N)C[C@@H]1N(C)c1ncnc2c1ccn2C(=O)Nc1ccc(O)cc1N [Example 8, N-(2-amino-4-hydroxyphenyl)-4-(((3R,4R)-1-(2-cyanoacetyl)-4-methylpiperidin-3-yl)(methyl)amino)-7H-pyrrolo[2,3-d]pyrimidine-7-carboxamide]
- activity at 10 µM (Raw 264.7 cell line): 72.6 ± 0.31%

Compound: C[C@@H]1CCN(C(=O)CC#N)C[C@@H]1N(C)c1ncnc2c1ccn2C(=O)N(C)CCN(C)C(=O)Nc1ccc(O)cc1N [Example 19, N-(2-(3-(2-amino-4-hydroxyphenyl)-1-methylureido)ethyl)-4-(((3R,4R)-1-(2-cyanoacetyl)-4-methylpiperidin-3-yl) (methyl)amino)-N-methyl-7H-pyrrolo[2,3-d]pyrimidine-7-carboxamide]
- activity at 10 µM (Raw 264.7 cell line): 54.1 ± 2.51%
